Values quoted from earlier work in patent US8846083B2, “Method for the diffusion of molecules which are insoluble in an aqueous medium and composition using said method” (priority 2004, dated 2014).

Assays:
[1] = administered via the digestive tract
[2] = administered via the digestive tract; remark: listed apart in the source

| Structure (SMILES) | duration of pharmacological effects [1] | time at which the maximum concentration of the active ingredient in the blood is reached [2] |
| --- | --- | --- |
| CC(C)Cc1ccc(C(C)C(=O)O)cc1 (stereo not shown) [ibuprofen] | approximately 2 hour | 90 min |
| CC(C(=O)O)c1cccc(C(=O)c2ccccc2)c1 (stereo not shown) [ketoprofen] | 1.5 hour | 75 min |
